Conditions: Liquid; for mass density: 100 kPa, Buoyancy - hydrostatic balance with magnetic suspension - one sinker

CCCCn1cc[n+](C)c1.F[B-](F)(F)F [1-butyl-3-methylimidazolium tetrafluoroborate]
Conditions	mass density [kg/m3]
264.16 K	1227.3
268.12 K	1224.12
273.71 K	1219.13
278.76 K	1215.77
283.03 K	1212.73
288.51 K	1208.73
293.06 K	1205.28
298.21 K	1201.97
303.18 K	1198.44
307.95 K	1195.03
313.18 K	1191.08
318.12 K	1187.23
323.27 K	1183.84
328.23 K	1179.81
333.27 K	1176.33
338.88 K	1172.3
343.23 K	1169.53
348.21 K	1166.02
353.25 K	1162.72
358.57 K	1159.04
363.9 K	1155.79

CCCCCn1cc[n+](C)c1.F[B-](F)(F)F [1-methyl-3-pentyl-imidazolium tetrafluoroborate]
Conditions	mass density [kg/m3]
263.11 K	1196.7
268.47 K	1193.07
273.58 K	1189.42
278.77 K	1185.81
283.09 K	1182.43
288.3 K	1178.63
292.92 K	1175.26
298.19 K	1171.74
303.03 K	1168.37
308.1 K	1164.61
313 K	1161.19
318.13 K	1157.51
323.84 K	1154.03
328.48 K	1150.65
333.48 K	1147.02
338.25 K	1143.81
342.51 K	1140.95
348.51 K	1137.46
354.03 K	1133.59
358.73 K	1130.69
365.22 K	1126.55

surface tension liquid-gas [mN/m]
Conditions	Ring tensiometer	Willhelmy plate method
263.64 K	43.08	–
269.34 K	42.79	–
273.78 K	42.67	–
278.75 K	42.24	–
283.06 K	–	41.81
283.1 K	42.19	–
288.31 K	41.94	41.58
292.93 K	–	41.36
292.94 K	41.69	–
298.2 K	41.4	41.1
303.06 K	–	40.86
303.07 K	41.17	–
308.07 K	40.88	–
308.1 K	–	40.6
313.01 K	40.64	–
313.04 K	–	40.36
318.12 K	40.35	–
318.17 K	–	40.07
323.56 K	40.02	–
323.62 K	–	39.72
328.29 K	39.81	–
328.31 K	–	39.45
333.1 K	–	39.18
333.29 K	39.49	–
338.23 K	39.13	38.94
342.51 K	38.95	–
342.52 K	–	38.68
348.1 K	38.54	–
348.11 K	–	38.42
353.72 K	38.21	–
353.84 K	–	38.09
358.24 K	38.16	–
358.37 K	–	37.87
364.6 K	37.6	–
364.61 K	–	37.57

CCCCCCCCCCn1cc[n+](C)c1.F[B-](F)(F)F [1-decyl-3-methylimidazolium tetrafluoroborate]
surface tension liquid-gas [mN/m]
Conditions	Ring tensiometer	Willhelmy plate method
283.21 K	30.74	–
287.98 K	30.53	–
288.03 K	–	30.17
293.33 K	30.27	–
293.46 K	–	29.96
298.21 K	30.11	–
298.28 K	–	29.8
303.14 K	29.86	–
303.2 K	–	29.62
308.05 K	29.66	–
308.07 K	–	29.48
313.12 K	29.45	–
313.16 K	–	29.27
318.14 K	–	29.09
318.22 K	29.18	–
322.9 K	–	28.89
322.91 K	28.87	–
328.39 K	28.69	28.66
333.13 K	–	28.48
333.2 K	28.44	–
338.26 K	–	28.28
338.28 K	28.26	–
343.17 K	28.02	–
343.25 K	–	28.12
348.56 K	–	27.89
348.57 K	27.79	–
353.03 K	–	27.7
353.07 K	27.52	–
357.72 K	–	27.55
357.75 K	27.31	–
363.98 K	27.11	27.32

Conditions	mass density [kg/m3]
283.26 K	1083.12
288.04 K	1079.26
293.48 K	1075.46
298.32 K	1072.34
303.26 K	1069.35
308.12 K	1064.91
313.23 K	1061.76
318.16 K	1058.04
323.03 K	1054.91
328.43 K	1051.67
333.15 K	1048.43
338.41 K	1044.81
343.37 K	1041.55
348.69 K	1038.22
353.21 K	1034.92
357.87 K	1032.03
363.98 K	1028.48

CCCCCCCCCCCC[n+]1ccn(C)c1.F[B-](F)(F)F [1-dodecyl-3-methylimidazolium tetrafluoroborate]
surface tension liquid-gas [mN/m]
Conditions	Ring tensiometer	Willhelmy plate method
327.2 K	25.89	–
333.17 K	–	25.79
333.2 K	25.61	–
338 K	–	25.54
338.06 K	25.59	–
342.73 K	–	25.4
343.23 K	25.4	–
347.11 K	25.22	25.26
353.61 K	–	25.03
353.66 K	25.11	–
359.02 K	–	24.82
359.84 K	24.78	–
363.47 K	–	24.64
363.69 K	24.63	–

Conditions	mass density [kg/m3]
328.83 K	1027.93
333.45 K	1024.75
337 K	1022.41
343.4 K	1018.2
347.32 K	1015.89
352.58 K	1012.18
357.71 K	1009
362.85 K	1005.22

Reference: the NIST ThermoML archive (doi:10.1016/j.jct.2016.04.008)
